# Literature values in patent US20210330903A1, “Multiple Dose Nasal Spray of Naloxone” (Navinta III Inc, priority 2020, published 2021).
smiles,measurement,setting,value
"C=CCN1CC[C@]23c4c5ccc(O)c4O[C@H]2C(=O)CC[C@@]3(O)[C@H]1C5.Cl [Naloxone hydrochloride, 17-Allyl-4,5α-epoxy-3,14 dihydroxymorphinan-6-one hydrochloride]",solubility in alcohol,alcohol,slightly soluble
same,solubility in chloroform,chloroform,practically insoluble
same,solubility in dilute acids,dilute acids,soluble
same,solubility in ether,ether,practically insoluble
same,solubility in strong alkali,strong alkali,soluble
same,solubility in water,water,soluble
